In US12466821B2 (Novartis AG, priority 2018, dated 2025):

Tests used:
[1] = test system: KOS strain of HSV-1 virus; assay: HSV-1 qPCR assay (cellular herpesvirus replication); format: cell-based; details: Human alphaherpesvirus 1; NN-NHDF cells, qPCR after 24 hrs; n>3, value (+/- spread)
Method: For all viral assays, 10 mM DMSO stock compound solutions were serially diluted in DMSO at 3.16 fold dilutions in 96-well clear round bottom plates. Compounds were then diluted in assay media at 1:20 and subsequently 10 μL of these dilutions were added to cells for final compound concentrations ranging either from 0.0159 μM to 50 μM in 0.5% DMSO/assay media, or from 0.00318 to 10 μM in 0.5% DMSO/assay media.
HSV-1 qPCR assay: The assay uses KOS strain of HSV-1 virus (ATCC cat #VR-1493). Viral replication in the presence or absence of compounds was measured by qPCR according to the following procedure: NN-NHDF cells were plated at 9,000 cells/well in 96-well white-wall clear bottom plates in 80 μL/well of assay media (same as CMV) and left at room temperature in laminar flow hood for 20 mins followed by incubation at 37° C. […]
qPCR reactions were carried out in a total reaction volume of 20 μL, using the QuantiFast® Multiplex PCR kit (Qiagen cat #204656). Eighteen μL of qPCR master mix (10 μL of 2× QuantiFast® Multiplex PCR Master Mix, 1 μL of 20× Primer/Probe Mix specific to housekeeping gene, 1 μL of 20× Primer/Probe Mix specific to viral gene, 6 μL of H2O) was distributed into each well of a 384 well plate. […]
Relative quantification was calculated with the ΔΔCT Method, and then converted into percent inhibitions. […] EC50 values were calculated using XLFit Dose Response One Site Model 205.

[2] = molecular target: human HSV DNA polymerase UL30 (Human herpesvirus 1 (strain 17) (HHV-1) (Human herpes simplex virus 1), UniProt P04293); assay: HSV polymerase biochemical assay (molecular beacon-based)
Procedure, shortened: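 Full-length wild-type N-terminal MBP-fusion polymerases from sf9 cells were used at 100 pM (CMV) or 625 pM (HSV) in Tris pH 7.5, 10 mM MgCl2, and preincubated with inhibitor for 30 min at RT. Reactions with 1.25 uM each dNTP, 200 nM primer and 100 nM molecular beacon ran 60 min (CMV) or 20 min (HSV) at RT. Fluorescence was read at 480/535 nm and IC50 derived.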

For N#Cc1ccc(CNC(=O)c2ccc3n(c2=O)CCN(CC2(S(=O)(=O)C4CC4)CC2)C3=O)cc1 [Example 1, N-(4-cyanobenzyl)-2-((1-(cyclopropylsulfonyl)cyclopropyl)methyl)-1,6-dioxo-2,3,4,6-tetrahydro-1H-pyrido[1,2-a]pyrazine-7-carboxamide], the EC50 [1] was 32 nM and the IC50 [2] was 27.3 nM.
